Assay results: the NIST ThermoML archive (doi:10.1021/je400149j)

Assay: relative permittivity at zero frequency (dimensionless); xn = mol fraction of the nth substance listed
Settings: 101 kPa, Liquid, impedance/gain phase analyzer

C[S+](C)[O-] [dimethyl sulfoxide] + O
relative permittivity at zero frequency
Settings	x1 = 0.1536	x1 = 0.2496	x1 = 0.3505	x1 = 0.4975	x1 = 0.5991	x1 = 0.7039	x1 = 0.7882	x1 = 0.8297	x1 = 0.9159	x1 = 1
253.15 K	91.94	88.58	84.04	76.79	–	–	–	–	–	–
255.15 K	91.25	87.74	83.36	76.23	–	–	–	–	–	–
257.15 K	90.45	86.97	82.67	75.63	–	–	–	–	–	–
259.15 K	89.61	86.2	82.03	75.1	–	–	–	–	–	–
261.15 K	88.8	85.42	81.31	74.51	69.37	–	–	–	–	–
263.15 K	87.94	84.64	80.65	73.97	68.84	–	–	–	–	–
265.15 K	87.11	83.94	79.97	73.39	68.38	–	–	–	–	–
267.15 K	86.34	83.09	79.33	72.86	67.89	–	–	–	–	–
269.15 K	85.49	82.43	78.71	72.29	67.37	–	–	–	–	–
271.15 K	84.69	81.68	78.01	71.63	66.92	–	–	–	–	–
273.15 K	83.99	80.92	77.39	71.06	66.4	60.97	–	–	–	–
275.15 K	83.16	80.24	76.74	70.47	65.94	60.58	–	–	–	–
277.15 K	82.38	79.52	75.92	69.92	65.48	60.19	–	–	–	–
279.15 K	81.7	78.75	75.25	69.35	65	59.84	56.06	–	–	–
281.15 K	80.98	78.14	74.63	68.84	64.52	59.46	55.83	–	–	–
283.15 K	80.31	77.42	74.04	68.36	64.1	59.05	55.54	53.95	–	–
285.15 K	79.54	76.72	73.46	67.82	63.61	58.67	55.2	53.67	–	–
287.15 K	78.93	76.14	72.79	67.3	63.09	58.31	54.84	53.38	50.53	–
289.15 K	78.19	75.4	72.06	66.67	62.58	57.91	54.52	53.01	50.3	–
291.15 K	77.43	74.76	71.47	66.13	62.13	57.57	54.21	52.68	50.06	47.15
293.15 K	76.72	74.13	70.84	65.63	61.65	57.17	53.82	52.36	49.79	47.09
295.15 K	75.97	73.52	70.29	65.13	61.23	56.81	53.45	52.06	49.53	46.84
297.15 K	75.33	72.88	69.71	64.67	60.76	56.37	53.1	51.72	49.27	46.64
299.15 K	74.63	72.11	69	64.12	60.32	55.99	52.77	51.42	49	46.39
301.15 K	74.02	71.48	68.41	63.63	59.83	55.59	52.41	51	48.75	46.18
303.15 K	73.34	70.83	67.88	63.07	59.38	55.21	52.03	50.7	48.48	45.94
305.15 K	72.66	70.21	67.29	62.57	58.95	54.82	51.63	50.38	48.21	45.63
307.15 K	72.02	69.63	66.63	62.12	58.51	54.47	51.27	50.04	47.94	45.39
309.15 K	71.28	69.05	66.07	61.59	58.1	54.05	50.9	49.68	47.64	45.14
311.15 K	70.73	68.39	65.52	61.06	57.64	53.66	50.51	49.39	47.35	44.88
313.15 K	70.05	67.84	64.91	60.58	57.16	53.28	50.11	49.02	47.09	44.64
315.15 K	69.51	67.3	64.33	60.13	56.72	52.92	49.73	48.67	46.85	44.34
317.15 K	68.91	66.79	63.77	59.56	56.28	52.56	49.39	48.36	46.53	44.11
319.15 K	68.26	66.18	63.12	59.12	55.79	52.15	49.09	48	46.26	43.87
321.15 K	67.66	65.6	62.59	58.67	55.33	51.79	48.75	47.69	45.99	43.58
323.15 K	67.01	65.07	62.03	58.11	54.85	51.43	48.37	47.33	45.72	43.31
325.15 K	66.49	64.43	61.49	57.67	54.36	51.04	48.03	47	45.4	43.07
327.15 K	65.83	63.89	60.98	57.18	54	50.64	47.64	46.66	45.12	42.78
329.15 K	65.27	63.35	60.4	56.69	53.52	50.25	47.27	46.35	44.82	42.56
331.15 K	64.72	62.78	59.87	56.23	53.03	49.87	46.94	45.99	44.53	42.27
333.15 K	64.08	62.18	59.28	55.72	52.61	49.49	46.57	45.67	44.23	42
